Earlier results, collected in US20090118293A1 (priority 2004, published 2009).
Counter-ions that a name gives are not always drawn.

In the case of NNc1nncc2ccccc12 [hydralazine hydrochloride], the Solubility in alcohol (alcohol) is given as “slightly soluble”, the Solubility in ether (ether) is given as “very slightly soluble” and the Solubility in water is given as “soluble”.
In the case of O=[N+]([O-])O[C@H]1CO[C@H]2[C@@H]1OC[C@H]2O[N+](=O)[O-] [isosorbide dinitrate, 1,4,3,6-dianhydro-D-glucitol-2,5-dinitrate], the “Solubility in organic solvents” value (organic solvents such as ethanol, ether and chloroform) is given as “freely soluble” and the Solubility in water is given as “sparingly soluble”.
